Results published in ChEMBL document CHEMBL1125143, “Relationship between structure, conformational flexibility, and biological activity of agonists and antagonists at the N-methyl-D-aspartic acid subtype of excitatory amino acid receptors” (J Med Chem, 1990).
Activity calls are given as the source filed them. No cut-off for these calls is given here.

Columns and labels:
[1] = target: T1, Glutamate NMDA receptor (Rattus norvegicus) (UniProt P35439+Q00959+Q00960+Q00961+Q62645+Q8VHN2+Q9R1M7); assay: Effective dose required for agonistic activity against N-methyl-D-aspartate glutamate receptor was determined in rat cortical slice preparation; type: functional
[2] = target: T1, Glutamate NMDA receptor (Rattus norvegicus)
[3] = target: T1, Glutamate NMDA receptor (Rattus norvegicus); assay: Antagonistic activity against N-methyl-D-aspartate glutamate receptor antagonist was determined in rat cortical slice preparation at concentration up to 5 mM; not active; type: functional
[4] = target: T1, Glutamate NMDA receptor (Rattus norvegicus); assay: Agonistic activity against N-methyl-D-aspartate glutamate receptor was determined in rat cortical slice preparation at concentration up to 5 mM; Not active; type: functional
[5] = target: T1, Glutamate NMDA receptor (Rattus norvegicus); assay: Antagonistic activity against N-methyl-D-aspartate glutamate receptor antagonist was determined in rat cortical slice preparation at concentration up to 100 mM; not active; type: functional
[6] = target: T1, Glutamate NMDA receptor (Rattus norvegicus); assay: Antagonistic activity against N-methyl-D-aspartate glutamate receptor antagonist was determined in rat cortical slice preparation at concentration up to 1 mM; not active; type: functional
[7] = target: T1, Glutamate NMDA receptor (Rattus norvegicus); assay: Antagonistic activity against N-methyl-D-aspartate glutamate receptor antagonist was determined in rat cortical slice preparation at concentration up to 100 mM; Active; type: functional

| Compound | ED50 [1] | ED50 [4] | other results |
| --- | --- | --- | --- |
| O=C(O)[C@@H]1CCCN[C@H]1C(=O)O (relative stereo) | 35 µM | – | – |
| CN[C@H](CC(=O)O)C(=O)O | – | – | ED50 [2]: 15 µM |
| O=C(O)[C@@H]1CCC[C@H](C(=O)O)N1 | – | inactive | NA [3]: inactive |
| O=C(O)[C@H]1CCCN[C@H]1C(=O)O (relative stereo) | 15 µM | – | NA [5]: inactive |
| O=C(O)[C@@H]1CC[C@H](C(=O)O)NC1 (relative stereo) | – | – | NA [6]: inactive |
| O=C(O)[C@H]1CC[C@H](C(=O)O)NC1 (relative stereo) | – | inactive | NA [3]: inactive |
| O=C(O)[C@@H]1CCN[C@@H](C(=O)O)C1 (relative stereo) | 60 µM | – | – |
| O=C(O)[C@H]1CCN[C@@H](C(=O)O)C1 (relative stereo) | – | inactive | A [7]: Active |
